One may read the pIC50 as −log10 of the IC50, conventionally taken in molar units.

This assay deals with T1, hPARG (Homo sapiens, UniProt Q86W56).
T1 construct: made in house; host or cells: E. coli
As to the kind of experiment: PARG enzymatic activity assay (HTRF). In kind it is biochemical. Conditions: C-terminal His6-tag hPARG 65 pM, biotinylated-NAD ribosylated PARP1 substrate 8 nM. A digest of the protocol: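 His6-tagged hPARG from E. coli (65 pM final) preincubated 60 min RT with compound (10-point 4-fold dilution), then 8 nM biotinylated NAD-ribosylated PARP1 added for 10 min RT in Tris pH 7.4 buffer with EDTA, EGTA, DTT, KCl. HTRF detection (Eu-streptavidin/anti-His XL665, 620/665 nm); IC50 from 4-parameter fit against DMSO and no-enzyme controls.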
In general terms: Time-resolved FRET reads energy transfer from a long-lived donor to a nearby acceptor.

pIC50: −log10 of the molar value. Where only a bound is given, the exact number is not on record here.

T1 sequence (Q86W56 whole entry): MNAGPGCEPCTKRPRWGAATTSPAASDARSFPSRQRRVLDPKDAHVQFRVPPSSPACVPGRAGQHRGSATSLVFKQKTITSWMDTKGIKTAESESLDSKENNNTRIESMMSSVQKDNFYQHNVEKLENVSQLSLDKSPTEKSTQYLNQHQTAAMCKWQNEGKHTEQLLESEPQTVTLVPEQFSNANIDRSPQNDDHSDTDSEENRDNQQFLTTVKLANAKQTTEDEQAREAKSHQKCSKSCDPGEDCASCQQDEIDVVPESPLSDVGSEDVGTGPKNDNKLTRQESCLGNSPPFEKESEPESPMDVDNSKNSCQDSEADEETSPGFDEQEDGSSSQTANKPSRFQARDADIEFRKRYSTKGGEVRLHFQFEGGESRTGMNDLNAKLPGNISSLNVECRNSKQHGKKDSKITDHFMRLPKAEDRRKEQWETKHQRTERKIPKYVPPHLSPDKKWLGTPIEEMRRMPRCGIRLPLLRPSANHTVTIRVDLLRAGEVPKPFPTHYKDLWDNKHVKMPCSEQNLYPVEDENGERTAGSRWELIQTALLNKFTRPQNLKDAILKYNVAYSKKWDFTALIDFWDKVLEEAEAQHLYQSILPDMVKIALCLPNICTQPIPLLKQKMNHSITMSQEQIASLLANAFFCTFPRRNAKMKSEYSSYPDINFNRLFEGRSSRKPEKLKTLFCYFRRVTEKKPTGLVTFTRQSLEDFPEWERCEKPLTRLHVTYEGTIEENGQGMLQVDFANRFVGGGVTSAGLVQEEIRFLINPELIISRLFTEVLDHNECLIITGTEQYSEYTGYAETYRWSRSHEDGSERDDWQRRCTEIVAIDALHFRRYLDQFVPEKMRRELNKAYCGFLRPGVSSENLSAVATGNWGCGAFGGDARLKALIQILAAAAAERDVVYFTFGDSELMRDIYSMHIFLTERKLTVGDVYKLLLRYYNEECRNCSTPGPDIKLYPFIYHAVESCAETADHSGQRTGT

Take `CCN(CC)CCN(C)c1ncnc2c1c1ccc(S(=O)(=O)NC3(C#N)CC3)cc1n2-c1nnc(C(F)F)s1` [Example 15, N-(1-Cyanocyclopropyl)-4-((2-(diethylamino)ethyl)(methyl)amino)-9-(5-(difluoromethyl)-1,3,4-thiadiazol-2-yl)-9H-pyrimido[4,5-b]indole-7-sulfonamide]: the pIC50 was at least 7.00.

Regarding `N#CC1(NS(=O)(=O)c2ccc3c4c(C#CCN5CCOCC5)ncnc4n(-c4nnc(C(F)F)s4)c3c2)CC1` [Example 86, N-(1-Cyanocyclopropyl)-9-(5-(difluoromethyl)-1,3,4-thiadiazol-2-yl)-4-(3-morpholinoprop-1-yn-1-yl)-9H-pyrimido[4,5-b]indole-7-sulfonamide], the pIC50 was at least 7.00.

Regarding `CCN(CC)[C@@H]1CCN(c2ncnc3c2c2ccc(S(=O)(=O)NC4(C#N)CC4)cc2n3-c2nnc(C(F)F)s2)C[C@@H]1OC` [Example 50, N-(1-Cyanocyclopropyl)-4-((3S,4R)-4-(diethylamino)-3-methoxypiperidin-1-yl)-9-(5-(difluoromethyl)-1,3,4-thiadiazol-2-yl)-9H-pyrimido[4,5-b]indole-7-sulfonamide], the pIC50 is at least 7.00.

`N#CC1(NS(=O)(=O)c2ccc3c4c(NCC5COCCO5)ncnc4n(-c4nnc(C(F)F)s4)c3c2)CC1` (stereo not shown) [Example 79, 4-(((1,4-Dioxan-2-yl)methyl)amino)-N-(1-cyanocyclopropyl)-9-(5-(difluoromethyl)-1,3,4-thiadiazol-2-yl)-9H-pyrimido[4,5-b]indole-7-sulfonamide] had a pIC50 of at least 7.00.

On to `CN1C[C@@H]2C[C@H]1CN2c1ncnc2c1c1ccc(S(=O)(=O)NC3(C#N)CC3)cc1n2-c1nnc(C(F)F)s1` [Example 31, N-(1-Cyanocyclopropyl)-9-(5-(difluoromethyl)-1,3,4-thiadiazol-2-yl)-4-((1S,4S)-5-methyl-2,5-diazabicyclo[2.2.1]heptan-2-yl)-9H-pyrimido[4,5-b]indole-7-sulfonamide], for which the pIC50 was at least 7.00.

With `CN1CCOCC1COc1ncnc2c1c1ccc(S(=O)(=O)NC3(C#N)CC3)cc1n2-c1nnc(C(F)F)s1` (stereo not shown) [Example 90, N-(1-Cyanocyclopropyl)-9-(5-(difluoromethyl)-1,3,4-thiadiazol-2-yl)-4-((4-methylmorpholin-3-yl)methoxy)-9H-pyrimido[4,5-b]indole-7-sulfonamide], the pIC50 is 6.00 to 7.00.

As to `CN1CCN(c2ncnc3c2c2ccc(S(=O)(=O)NC4(C#N)CC4)cc2n3-c2nnc(C(F)F)s2)CC12CC2` [Example 48, N-(1-Cyanocyclopropyl)-9-(5-(difluoromethyl)-1,3,4-thiadiazol-2-yl)-4-(4-methyl-4,7-diazaspiro[2.5]octan-7-yl)-9H-pyrimido[4,5-b]indole-7-sulfonamide], the pIC50 was at least 7.00.

The molecule `CN(c1ncnc2c1c1ccc(S(=O)(=O)NC3(C#N)CC3)cc1n2-c1nnc(C(F)F)s1)[C@H]1CCOC1` [Example 70, (S)-N-(1-Cyanocyclopropyl)-9-(5-(difluoromethyl)-1,3,4-thiadiazol-2-yl)-4-(methyl(tetrahydrofuran-3-yl)amino)-9H-pyrimido[4,5-b]indole-7-sulfonamide] had a pIC50 of 6.00 to 7.00.

As to `CCN(CC)[C@H]1CCN(c2ncnc3c2c2ccc(S(=O)(=O)NC4(C#N)CC4)cc2n3-c2nnc(C(F)F)s2)C[C@H]1F` [Example 34, N-(1-Cyanocyclopropyl)-4-((3R,4S)-4-(diethylamino)-3-fluoropiperidin-1-yl)-9-(5-(difluoromethyl)-1,3,4-thiadiazol-2-yl)-9H-pyrimido[4,5-b]indole-7-sulfonamide], the pIC50 was at least 7.00.

In turn, `CSc1ncnc2c1c1ccc(S(=O)(=O)NC3(C#N)CC3)cc1n2-c1nnc(C(F)F)s1` [Example 25, N-(1-cyanocyclopropyl)-9-(5-(difluoromethyl)-1,3,4-thiadiazol-2-yl)-4-(methylthio)-9H-pyrimido[4,5-b]indole-7-sulfonamide] gave a pIC50 of at least 7.00.

Regarding `CN(CC1COCCO1)c1ncnc2c1c1ccc(S(=O)(=O)NC3(C#N)CC3)cc1n2-c1nnc(C(F)F)s1` (stereo not shown) [Example 69, 4-(((1,4-Dioxan-2-yl)methyl)(methyl)amino)-N-(1-cyanocyclopropyl)-9-(5-(difluoromethyl)-1,3,4-thiadiazol-2-yl)-9H-pyrimido[4,5-b]indole-7-sulfonamide], the pIC50 was at least 7.00.

Molecule `CN(C)c1ncnc2c1c1ccc(S(=O)(=O)NC3(C#N)CC3)cc1n2-c1nnc(C(F)F)s1` [Example 14, N-(1-Cyanocyclopropyl)-9-(5-(difluoromethyl)-1,3,4-thiadiazol-2-yl)-4-(dimethylamino)-9H-pyrimido[4,5-b]indole-7-sulfonamide] gave a pIC50 of at least 7.00.

`N#CC1(NS(=O)(=O)c2ccc3c4c(O[C@H]5CCOC5)ncnc4n(-c4nnc(C(F)F)s4)c3c2)CC1` [Example 7, (S)-N-(1-Cyanocyclopropyl)-9-(5-(difluoromethyl)-1,3,4-thiadiazol-2-yl)-4-((tetrahydrofuran-3-yl)oxy)-9H-pyrimido[4,5-b]indole-7-sulfonamide] gave a pIC50 of at least 7.00.

For the molecule `CN(C)[C@H]1CCCC[C@@H]1N(C)c1ncnc2c1c1ccc(S(=O)(=O)NC3(C#N)CC3)cc1n2-c1nnc(C(F)F)s1` [Example 74, N-(1-Cyanocyclopropyl)-9-(5-(difluoromethyl)-1,3,4-thiadiazol-2-yl)-4-(((1S,2S)-2-(dimethylamino)cyclohexyl)(methyl)amino)-9H-pyrimido[4,5-b]indole-7-sulfonamide], the pIC50 was at least 7.00.

`CN(C)C(=O)N1CCN(CCOc2ncnc3c2c2ccc(S(=O)(=O)NC4(C#N)CC4)cc2n3-c2nnc(C(F)F)s2)CC1` [Example 5, 4-(2-((7-(N-(1-Cyanocyclopropyl)sulfamoyl)-9-(5-(difluoromethyl)-1,3,4-thiadiazol-2-yl)-9H-pyrimido[4,5-b]indol-4-yl)oxy)ethyl)-N,N-dimethylpiperazine-1-carboxamide] had a pIC50 of at least 7.00.

On to `CC(C)(O)C#Cc1ncnc2c1c1ccc(S(=O)(=O)NC3(C#N)CC3)cc1n2-c1nnc(C(F)F)s1` [Example 88, N-(1-Cyanocyclopropyl)-9-(5-(difluoromethyl)-1,3,4-thiadiazol-2-yl)-4-(3-hydroxy-3-methylbut-1-yn-1-yl)-9H-pyrimido[4,5-b]indole-7-sulfonamide], for which the pIC50 is at least 7.00.

`CN1CCN(c2ncnc3c2c2ccc(S(=O)(=O)NC4(C#N)CC4)cc2n3-c2nnc(C(F)F)s2)C[C@@H]1CO` [Example 43, (R)-N-(1-Cyanocyclopropyl)-9-(5-(difluoromethyl)-1,3,4-thiadiazol-2-yl)-4-(3-(hydroxymethyl)-4-methylpiperazin-1-yl)-9H-pyrimido[4,5-b]indole-7-sulfonamide] had a pIC50 of at least 7.00.

Consider `CCN(CC)[C@@H]1CCN(c2ncnc3c2c2ccc(S(=O)(=O)NC4(C#N)CC4)cc2n3-c2nnc(C(F)F)s2)C[C@H]1F` [Example 35, N-(1-Cyanocyclopropyl)-4-((3R,4R)-4-(diethylamino)-3-fluoropiperidin-1-yl)-9-(5-(difluoromethyl)-1,3,4-thiadiazol-2-yl)-9H-pyrimido[4,5-b]indole-7-sulfonamide], for which the pIC50 was at least 7.00.

Take `CN(c1ncnc2c1c1ccc(S(=O)(=O)NC3(C#N)CC3)cc1n2-c1nnc(C(F)F)s1)C1COC1` [Example 58, N-(1-Cyanocyclopropyl)-9-(5-(difluoromethyl)-1,3,4-thiadiazol-2-yl)-4-(methyl(oxetan-3-yl)amino)-9H-pyrimido[4,5-b]indole-7-sulfonamide]: the pIC50 is 6.00 to 7.00.

For the molecule `Cc1nc2n(n1)CCN(c1ncnc3c1c1ccc(S(=O)(=O)NC4(C#N)CC4)cc1n3-c1nnc(C(F)F)s1)C2` [Example 55, N-(1-Cyanocyclopropyl)-9-(5-(difluoromethyl)-1,3,4-thiadiazol-2-yl)-4-(2-methyl-5,6-dihydro-[1,2,4]triazolo[1,5-a]pyrazin-7(8H)-yl)-9H-pyrimido[4,5-b]indole-7-sulfonamide], the pIC50 is at least 7.00.

On to `CCN1CCCC12CCN(c1ncnc3c1c1ccc(S(=O)(=O)NC4(C#N)CC4)cc1n3-c1nnc(C(F)F)s1)CC2` [Example 52, N-(1-Cyanocyclopropyl)-9-(5-(difluoromethyl)-1,3,4-thiadiazol-2-yl)-4-(1-ethyl-1,8-diazaspiro[4.5]decan-8-yl)-9H-pyrimido[4,5-b]indole-7-sulfonamide], for which the pIC50 is at least 7.00.

Take `CN(CCn1ccnc1)c1ncnc2c1c1ccc(S(=O)(=O)NC3(C#N)CC3)cc1n2-c1nnc(C(F)F)s1` [Example 59, 4-((2-(1H-Imidazol-1-yl)ethyl)(methyl)amino)-N-(1-cyanocyclopropyl)-9-(5-(difluoromethyl)-1,3,4-thiadiazol-2-yl)-9H-pyrimido[4,5-b]indole-7-sulfonamide]: the pIC50 was 6.00 to 7.00.

For the molecule `CN(CC1(C#N)CC1)c1ncnc2c1c1ccc(S(=O)(=O)NC3(C#N)CC3)cc1n2-c1nnc(C(F)F)s1` [Example 75, N-(1-Cyanocyclopropyl)-4-(((1-cyanocyclopropyl)methyl)(methyl)amino)-9-(5-(difluoromethyl)-1,3,4-thiadiazol-2-yl)-9H-pyrimido[4,5-b]indole-7-sulfonamide], the pIC50 was at least 7.00.

Molecule `CCN(CCN1CCOCC1)c1ncnc2c1c1ccc(S(=O)(=O)NC3(C#N)CC3)cc1n2-c1nnc(C(F)F)s1` [Example 18, N-(1-Cyanocyclopropyl)-9-(5-(difluoromethyl)-1,3,4-thiadiazol-2-yl)-4-(ethyl(2-morpholinoethyl)amino)-9H-pyrimido [4,5-b]indole-7-sulfonamide] gave a pIC50 of at least 7.00.

In turn, `N#CC1(NS(=O)(=O)c2ccc3c4c(SCCO)ncnc4n(-c4nnc(C(F)F)s4)c3c2)CC1` [Example 27, N-(1-Cyanocyclopropyl)-9-(5-(difluoromethyl)-1,3,4-thiadiazol-2-yl)-4-((2-hydroxyethyl)thio)-9H-pyrimido[4,5-b]indole-7-sulfonamide] gave a pIC50 of at least 7.00.

The record behind these values is patent US20260049088A1, “TRICYCLIC HETEROCYCLIC DERIVATIVES, COMPOSITIONS AND USES THEREOF” (Danatlas Pharmaceuticals Co., Ltd., priority 2023, published 2026).
